{
  "source": "patent US20230181569A1",
  "about": "“COMPOSITIONS AND METHODS TO TREAT POLYCYSTIC KIDNEY DISEASE” (Board of Supervisors of Louisiana State University and …, priority 2020, published 2023)",
  "key": {"Sprague-Dawley rats": {"system": "Sprague-Dawley rats", "details": "cited from earlier work; for urine output: Sprague-Dawley rats; for sedation and hyperphagia: rat, in vivo"}, "Pkd1^RC/RC mice": {"system": "Pkd1^RC/RC mice", "experiment": "Acute oral gavage of nalfurafine, urine output in PKD mice", "assay_type": "in vivo", "protocol": "Volume expansion, give mice saline at the dose of 20 ml/kg. (b) dose responsive curve of nalfurafine in Pkd1^RC/RC mice. Y axis, accumulative urine output of 5 hours after dosing. n=7-10 in each group.\nADPKD patients have an elevated level of vasopressin. Based on this observation, tolvaptan was discovered and later approved by its mechanism of action of blocking V2 receptors on the distal tubules. However, this also leads to the side effect of polyuria and severe thirst. […] Therefore, the long-term effects by nalfurafine on urine output can be limited unlike tolvaptan.\nTherefore, we will give PKD mice nalfurafine daily at the maximum responsive dose 240 ug/kg/day for chronic studies in both Aim 1 and Aim 2 to obtain the greatest benefits."}, "WT mice": {"system": "WT mice", "experiment": "Oral gavage of nalfurafine, urine output in wild type mice", "assay_type": "in vivo", "protocol": "The dose volume is 20 ml/kg.\nPolycystic kidney disease (PKD) affects one person in every 400 to 1000 people in the U.S., which is associated with substantial mortality. […] There is no cure for PKD, and currently only one treatment is available to delay progression: tolvaptan, a vasopressin V2 receptor antagonist. This drug is expensive and indicated only in some patients who are at high risk for progression. The efficacy of tolvaptan proves that an active vasopressin pathway plays a critical role in this disease progression. However, the drug carries risk of severe hepatic toxicity, and patients treated with tolvaptan are suffering serious side effects, such as severe thirst and polyuria due to inhibition of V2 receptor in the distal nephrons. […] In addition to their inhibitory effect on vasopressin secretion and subsequent diuretic effect, KOAs can produce an anti-inflammatory micro-environment at the cellular level, which protects cardiac tissue from fibrosis."}, "Sprague Dawley rats": {"system": "Sprague Dawley rats", "experiment": "Stability of drug dissolved in drinking water, read out as urine output in rats", "assay_type": "in vivo", "protocol": "Day 1, the fresh made drug was given to rats. Day 4, the drug made on day 1 was given to the same rats. Veh, vehicle; Nal, nalfurafine. n=3 for each group.\nRoute of administration: Drug will be given orally in drinking water. We have performed a study to test the stability of the drug. […] We then left this water bottle at room temperature for three days, and we then gave this water to the same rats again. […] Therefore, the drug is stable for 3 days when it is dissolved in water at room temperature. We will make fresh nalfurafine in drinking water every 3 days in the chronic studies in both Aim 1 and Aim 2. We will give another group of mice the standard care of tolvaptan to serve as comparison of the treatment."}, "Pkd1 RC/RC mice": {"system": "Pkd1 RC/RC mice", "experiment": "Chronic daily oral gavage of KOA in Pkd1 RC/RC mice (Example 1, Studies 1 and 2)", "assay_type": "in vivo", "details": "daily oral gavage 4 or 8 weeks; for fibrosis area in the kidney / serum creatinine and blood urea levels / cyst size and numbers: Pkd1 RC/RC mice; for cyst size and numbers: 5 mg/kg JT-09 or 100 µg/kg nalfurafine; for GFR: mice with PKD", "protocol": "Pkd1 RC/RC mice were used as the polycystic kidney disease model. 12 weeks old mice were given a KOA treatment (JT-09 or nalfurafine) or a vehicle at a dose of 5 mg/kg for JT-09 or 100 µg/kg for nalfurafine daily for 4 or 8 weeks.\nGroup 1: Pkd1 RC/RC mice + treatment (JT09 or nalfurafine) oral gavage (5 mg/kg for JT-09 or 100 µg/kg for nalfurafine) daily. n=24\nGroup 2: Pkd1 RC/RC mice + vehicle oral gavage daily. n=24\nAt 16 weeks old, 12 mice from both groups 1 and 2 were selected. These mice were each placed in a metabolic cage to collect urine for three 24-hour periods (a total of 72 hours). Each mouse was placed in a separate metabolic cage, as opposed to all mice in a single metabolic cage. Daily water intake for each mouse is also recorded. Mice were then deep anesthetized, and blood was be taken from their artery. Mice were then sacrificed. Both kidneys were perfused with PBS and fixed in neutral buffered formalin. Kidneys were processed for paraffin embedding and sectioning. H&E and picrosirus stain were performed on each section. Cystic index including cysts size and number were evaluated by a pathologist. Fibrosis was evaluated by the pathologist as well; in addition, a fibrotic score was given. The serum creatinine and blood urea level in the blood was then measured.\nAt 20 weeks old, the other set of 12 mice in both groups was then sacrificed and the same experiment was be performed as described herein.\nAt 16 weeks old, 12 mice from each group were anesthetized. The right jugular vein was catheterized for inulin infusion, and the bladder was catheterized for urine collection. GFR was evaluated based on the excretion rate of FITC-sinistrin.\nAt 20 weeks old, the same GFR measure was be repeated on the other 12 mice from each group."}, "affected skin": {"system": "affected skin", "details": "atopic dermatitis and pruritus; cited from earlier work"}, "kappa receptors": {"biological_target": "kappa receptors (Homo sapiens, UniProt P41145)", "sequence (P41145 whole entry)": "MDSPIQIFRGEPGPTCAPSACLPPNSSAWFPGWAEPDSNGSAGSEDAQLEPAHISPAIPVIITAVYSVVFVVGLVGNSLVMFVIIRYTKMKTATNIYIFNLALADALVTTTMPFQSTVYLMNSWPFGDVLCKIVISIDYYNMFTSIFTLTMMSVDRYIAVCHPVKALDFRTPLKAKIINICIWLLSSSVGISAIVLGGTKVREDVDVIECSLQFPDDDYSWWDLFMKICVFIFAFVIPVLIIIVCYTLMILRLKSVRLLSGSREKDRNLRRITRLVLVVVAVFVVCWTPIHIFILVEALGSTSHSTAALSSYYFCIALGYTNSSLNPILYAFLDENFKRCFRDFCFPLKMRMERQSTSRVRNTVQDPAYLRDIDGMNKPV", "details": "cited from earlier work"}, "[1]": {"details": "cited from earlier work"}, "patients [2]": {"system": "patients", "details": "cited from earlier work"}, "[3]": {"details": "in vivo; cited from earlier work"}, "[4]": {"details": "cited from earlier work", "remark": "listed apart in the source"}, "patients [5]": {"system": "patients", "details": "patients treated with tolvaptan; cited from earlier work"}, "patients [6]": {"system": "patients", "details": "human trials; cited from earlier work"}, "conscious rats": {"system": "conscious rats", "details": "cited from earlier work"}, "[7]": {"details": "i.c.v. or i.v. infusion, conscious rats"}},
  "note": "Read-outs that look alike come from different tables or passages of the source.",
  "data": [
    {"compound": "CC(C)C1CCC(N2CCC(N3C(=O)/C(=N\\O)c4ccccc43)CC2)CC1", "note": "(centres unmarked) [AT-127]", "values": [
      {"measurement": "urine output", "setting": "Sprague-Dawley rats", "result": "increase urine output"},
      {"measurement": "sedation and hyperphagia", "setting": "Sprague-Dawley rats", "result": "sedation and hyperphagia"}
    ]},
    {"compound": "CC(C)C1CCC(N2CCC(N3C(=O)C(=O)c4ccccc43)CC2)CC1", "note": "(centres unmarked) [AT-090]", "values": [
      {"measurement": "urine output", "setting": "Sprague-Dawley rats", "result": "increase urine output"},
      {"measurement": "sedation and hyperphagia", "setting": "Sprague-Dawley rats", "result": "sedation and hyperphagia"}
    ]},
    {"compound": "CN(C(=O)/C=C/c1ccoc1)[C@@H]1CC[C@@]2(O)[C@H]3Cc4ccc(O)c5c4[C@@]2(CCN3CC2CC2)[C@H]1O5", "note": "[nalfurafine]", "values": [
      {"measurement": "dose dependence of the increase in urine output", "setting": "Pkd1^RC/RC mice; Pkd1^RC/RC mice, accumulative urine output of 5 hours after dosing", "result": "dose dependent"},
      {"measurement": "dose with the greatest increase in 5-hour urine output", "setting": "Pkd1^RC/RC mice; Pkd1^RC/RC mice, doses of 100, 130, 180, 240 and 320 ug/kg", "result": 0.24, "unit": "mg/kg"},
      {"measurement": "highest effective dose in acute study", "setting": "Pkd1^RC/RC mice; acute study", "result": 0.24, "unit": "mg/kg"},
      {"measurement": "urine output compared with vehicle treatment", "setting": "Pkd1^RC/RC mice; oral administration, mice with PKD, within the 3 hours after dosing (FIG. 24a: 240 ug/kg)", "result": "significant increase in urine output"},
      {"measurement": "behavioral or adverse effects", "setting": "WT mice; mouse, in vivo", "result": "does not produce any apparent behavioral or adverse effects"},
      {"measurement": "urine output", "setting": "WT mice; oral gavage, wild type mice", "result": "marked increase in urine output"},
      {"measurement": "diuresis after fresh drug dissolved in water", "setting": "Sprague Dawley rats; rats, first day, 30 ug/kg single dose", "result": "produced diuresis"},
      {"measurement": "magnitude of increase in urine output, day 4 versus day 1", "setting": "Sprague Dawley rats; same rats, drug solution kept at room temperature for three days", "result": "the same on day 4 as it was on day 1"},
      {"measurement": "stability when dissolved in water at room temperature", "setting": "Sprague Dawley rats; water, room temperature", "result": 3, "unit": "days"},
      {"measurement": "fibrosis area in the kidney", "setting": "Pkd1 RC/RC mice", "result": "reduce fibrosis area in the kidney"},
      {"measurement": "serum creatinine and blood urea levels", "setting": "Pkd1 RC/RC mice", "result": "decrease serum creatinine and blood urea levels"},
      {"measurement": "cyst size and numbers", "setting": "Pkd1 RC/RC mice", "result": "decrease cyst size and numbers"},
      {"measurement": "GFR", "setting": "Pkd1 RC/RC mice", "result": "improve GFR"},
      {"measurement": "infiltration of CD4+ and CD8+ T cells", "setting": "affected skin", "result": "reduced infiltration of CD4+ T cells and CD8+ T cells in the affected skin"},
      {"measurement": "selectivity for kappa receptors", "setting": "kappa receptors", "result": "highly selective for kappa receptors"},
      {"measurement": "half life", "setting": "[1]; healthy volunteers", "result": 8, "unit": "h"},
      {"measurement": "half life", "setting": "[1]; hemodialysis patients", "result": "10 to 15", "unit": "h"},
      {"measurement": "polyuria as a side effect", "setting": "patients [2]; clinical trials of nalfurafine", "result": "none of the clinical trials of nalfurafine have reported polyuria"},
      {"measurement": "CNS-mediated side effects of traditional opioids (nausea/vomiting, sedation, respiratory depression, abuse potential, addiction, euphoria)", "setting": "patients [2]; human, in vivo", "result": "does not produce the CNS-mediated side effects"},
      {"measurement": "extreme thirst and polyuria", "setting": "patients [2]; one year post-marketing surveillance study", "result": "does not cause extreme thirst nor polyuria"},
      {"measurement": "insomnia (worst side effect), share of patients", "setting": "patients [2]; post marketing analysis of 3,762 patients", "result": "approximately 3%"}
    ]},
    {"compound": "CCCC[C@@H](NC(=O)[C@@H](Cc1ccccc1)NC(=O)[C@H](N)Cc1ccccc1)C(=O)N[C@H](CCCCN(C)C)C(=O)NCc1ccncc1", "note": "[JT09]", "values": [
      {"measurement": "fibrosis area in the kidney", "setting": "Pkd1 RC/RC mice", "result": "reduce fibrosis area in the kidney"},
      {"measurement": "serum creatinine and blood urea levels", "setting": "Pkd1 RC/RC mice", "result": "decrease serum creatinine and blood urea levels"},
      {"measurement": "cyst size and numbers", "setting": "Pkd1 RC/RC mice", "result": "decrease cyst size and numbers"},
      {"measurement": "GFR", "setting": "Pkd1 RC/RC mice", "result": "improve GFR"},
      {"measurement": "serum creatinine levels", "setting": "[3]", "result": "reduces serum creatinine levels"},
      {"measurement": "urine output", "setting": "[3]", "result": "increases urine output"}
    ]},
    {"compound": "CNC(=O)CC1C(=O)N(C2CCN(C3CCC(C(C)C)CC3)CC2)c2ccccc21", "note": "(centres unmarked) [AT-403]", "values": [
      {"measurement": "urine output", "setting": "Sprague-Dawley rats", "result": "increase urine output"},
      {"measurement": "sedation and hyperphagia", "setting": "Sprague-Dawley rats", "result": "sedation and hyperphagia"}
    ]},
    {"compound": "Cc1ccccc1C(=O)Nc1ccc(C(=O)N2CCCC(O)c3cc(Cl)ccc32)c(C)c1", "note": "(centres unmarked) [tolvaptan]", "values": [
      {"measurement": "water solubility", "setting": "[4]", "result": "poor water solubility"},
      {"measurement": "undesirable side effects", "setting": "patients [5]", "result": "severe thirst, polyuria and hepatic toxicity"}
    ]},
    {"compound": "Ac—Arg—Tyr—Tyr—Arg—Trp—Lys—Lys—Lys—Lys—Lys—Lys—Lys—NH2 (Ac-RYYRWKKKKKKK-NH2) [ZP120, peptide NOP receptor partial agonist]", "values": [
      {"measurement": "blood pressure", "setting": "patients [6]", "result": "efficacious in lowering blood pressure"}
    ]},
    {"compound": "CC(C)C1CCC(N2CCC(n3c(CO)c(CO)c4ccccc43)CC2)CC1", "note": "(centres unmarked) [AT-390]", "values": [
      {"measurement": "urine output", "setting": "Sprague-Dawley rats", "result": "increase urine output"}
    ]},
    {"compound": "nociceptin (FGGFTGARKSARKLANQ; Nociceptin; UniProt Q13519 130-146, looked up) [17 amino acid peptide, classical ligand of the nociceptin opioid peptide receptor]", "values": [
      {"measurement": "circulating levels of vasopressin", "setting": "conscious rats; administered centrally", "result": "reduces circulating levels of vasopressin"},
      {"measurement": "blood pressure, heart rate and peripheral sympathetic nerve activity", "setting": "conscious rats; centrally (i.c.v.) or at high doses peripherally (i.v. bolus or infusion)", "result": "decreases blood pressure, heart rate and peripheral sympathetic nerve activity"},
      {"measurement": "urinary sodium excretion", "setting": "conscious rats; [7]", "result": "decrease in urinary sodium excretion"},
      {"measurement": "urine flow rate", "setting": "conscious rats; [7]", "result": "marked increase in urine flow rate"}
    ]}
  ]
}
